Laboratory results taken from ChEMBL document CHEMBL5143742, “Discovery and Characterization of a Novel Series of Chloropyrimidines as Covalent Inhibitors of the Kinase MSK1” (ACS Med Chem Lett, 2022).

Tests used:
[1] = Intrinsic clearance in human liver microsomes assessed per mg protein; type: ADME, Microsome
[2] = Intrinsic clearance in mouse liver microsomes assessed per mg protein; type: ADME, Microsome
[3] = Lipophilicity, log D of the compound; type: physicochemical; conditions: octanol/water

CLH [1]: 11.7 µL/min | CLH [2]: 131 µL/min | logD [3]: 2.3
Structure (SMILES): Clc1ncc(Cl)c(-n2ccc3ncccc32)n1
